Experimental findings from US20180244611A1, “Modulators of the Cystic Fibrosis Transmembrane Conductance Regulator Protein and Methods of Use” (AbbVie S.à.r.l., priority 2017, published 2018) are described below.

Structures are written as SMILES.

Assay [1] concerns the target T1, F508delCFTR (Homo sapiens, UniProt P13569, DEL508-508).
T1 construct: expressed in transfected cells; host or cells: CFBE41o- human lung-derived epithelial cells (CFBE41o-F508delCFTR-HRP), doxycycline-inducible
Nature of the assay: Cell Surface Expression-Horse Radish Peroxidase (CSE-HRP) assay, test compound with co-corrector.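 As to Maximum % activity (with co-corrector): percent of 2 µM positive control corrector over DMSO; co-corrector is that same compound.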 Type of assay: cell-based. The settings on record: with 2 μM co-corrector; for Maximum % activity (with co-corrector): maximum at any tested concentration, normalized to positive control. The method in brief:
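Surface-expression read-out: luminol luminescence from an HRP tag in the fourth exofacial loop of F508delCFTR, in doxycycline-induced (0.5 μg/mL, 72 h) CFBE41o- cells. Compound plus 2 μM co-corrector added for 18-24 h at 33° C., 8-point 3-fold series up to 20 μM. EC50 from a sigmoidal fit with variable Hill slope, normalised to positive control, triplicate plates.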

For assay [2], the target named is T1, F508delCFTR. Nature of the assay: Cell Surface Expression-Horse Radish Peroxidase (CSE-HRP) assay, test compound without co-corrector.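 As to Emax: percent of on-plate 2 µM positive control corrector response over DMSO.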 The format is cell-based. Conditions: for Emax: maximum at any tested concentration, normalized to positive control, without co-corrector; for EC50: test compound without co-corrector. The method in brief: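 Compound without co-corrector was tested at eight 3-fold concentrations, top 20 μM, for 18-24 h at 33° C on doxycycline-induced (0.5 μg/mL, 72 h) CFBE41o- F508delCFTR-HRP cells. After DPBS washes, luminol luminescence gave % activity relative to on-plate positive control minus DMSO; EC50 came from triplicate-plate sigmoidal fitting.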

T1 sequence (P13569 with tags, fused parts or gaps DEL508-508): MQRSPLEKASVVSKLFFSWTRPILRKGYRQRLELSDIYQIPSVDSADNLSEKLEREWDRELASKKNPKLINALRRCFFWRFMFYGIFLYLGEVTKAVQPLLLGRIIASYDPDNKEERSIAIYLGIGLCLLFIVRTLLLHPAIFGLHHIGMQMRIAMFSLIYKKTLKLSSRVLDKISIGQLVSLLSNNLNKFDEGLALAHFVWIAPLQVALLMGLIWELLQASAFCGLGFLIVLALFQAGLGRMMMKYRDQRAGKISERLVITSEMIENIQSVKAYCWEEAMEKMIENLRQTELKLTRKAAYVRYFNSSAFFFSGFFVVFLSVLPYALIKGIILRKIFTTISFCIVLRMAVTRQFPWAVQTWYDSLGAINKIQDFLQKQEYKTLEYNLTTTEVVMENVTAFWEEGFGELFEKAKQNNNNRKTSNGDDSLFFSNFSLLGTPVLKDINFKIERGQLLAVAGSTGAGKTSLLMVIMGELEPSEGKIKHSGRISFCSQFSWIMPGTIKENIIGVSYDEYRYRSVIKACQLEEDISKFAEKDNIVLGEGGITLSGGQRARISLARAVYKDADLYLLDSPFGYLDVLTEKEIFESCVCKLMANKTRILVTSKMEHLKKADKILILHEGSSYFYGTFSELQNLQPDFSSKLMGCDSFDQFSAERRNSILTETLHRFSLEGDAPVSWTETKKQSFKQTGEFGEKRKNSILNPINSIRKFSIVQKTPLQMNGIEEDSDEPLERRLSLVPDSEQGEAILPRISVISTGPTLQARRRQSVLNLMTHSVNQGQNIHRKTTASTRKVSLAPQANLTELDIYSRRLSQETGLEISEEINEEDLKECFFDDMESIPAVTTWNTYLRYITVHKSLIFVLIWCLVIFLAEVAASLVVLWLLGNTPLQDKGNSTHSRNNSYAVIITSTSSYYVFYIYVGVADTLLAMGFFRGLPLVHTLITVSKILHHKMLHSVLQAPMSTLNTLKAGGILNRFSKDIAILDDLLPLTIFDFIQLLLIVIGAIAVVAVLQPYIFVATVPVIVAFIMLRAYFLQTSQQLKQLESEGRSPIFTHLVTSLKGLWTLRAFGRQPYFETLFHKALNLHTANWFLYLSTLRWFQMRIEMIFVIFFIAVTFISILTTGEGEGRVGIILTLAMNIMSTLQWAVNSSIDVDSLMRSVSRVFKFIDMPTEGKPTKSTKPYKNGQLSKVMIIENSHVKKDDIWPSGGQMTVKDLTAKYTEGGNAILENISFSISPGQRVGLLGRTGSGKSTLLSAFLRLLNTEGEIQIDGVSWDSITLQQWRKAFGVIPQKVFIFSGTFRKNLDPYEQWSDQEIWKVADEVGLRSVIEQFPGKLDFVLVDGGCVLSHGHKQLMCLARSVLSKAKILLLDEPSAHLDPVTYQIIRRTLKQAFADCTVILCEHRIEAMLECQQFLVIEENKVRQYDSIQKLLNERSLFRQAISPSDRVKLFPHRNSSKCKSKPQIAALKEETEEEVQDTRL

Broadly, the EC50 is the concentration that produces a half-maximal response. Read a low EC50 as greater potency. As a reminder, the Emax is the size of the effect at its maximum, as opposed to the concentration needed. With `COc1ccc(Br)c2c1CC[C@H]2C(=O)NS(=O)(=O)c1cccc2ccccc12` [Example I-84, (1R)-7-bromo-4-methoxy-N-(naphthalene-1-sulfonyl)-2,3-dihydro-1H-indene-1-carboxamide], in assay [1], the “Maximum % activity (with co-corrector)” value is on record as “+++ (≥350)” and the EC50 was < 3 µM. Moreover, in assay [2], the maximal response (Emax) is ≥ 150% and the EC50 lay in the range of 3 to 10 µM.

For `COc1ccc(Br)c2c1CC[C@@H]2C(=O)NS(=O)(=O)c1cccc2ccccc12` [Example I-85, (1S)-7-bromo-4-methoxy-N-(naphthalene-1-sulfonyl)-2,3-dihydro-1H-indene-1-carboxamide], in assay [1], the “Maximum % activity (with co-corrector)” value is listed as “+++ (≥350)” and the EC50 is 3 to 10 µM. In assay [2], this compound showed an Emax of 50 to 150% and an EC50 of 3 to 10 µM.

As to `COc1ccc(C2CC2)c2c1C(C(=O)NS(=O)(=O)c1cccc3ccccc13)CCC2` (centres unmarked) [Example I-88, 5-cyclopropyl-8-methoxy-N-(naphthalene-1-sulfonyl)-1,2,3,4-tetrahydronaphthalene-1-carboxamide], in assay [1], the “Maximum % activity (with co-corrector)” value is reported as “+++ (≥350)” and the EC50 was < 3 µM. In assay [2], the Emax is ≥ 150% and the 50% effective concentration (EC50) is < 3 µM.

Regarding `COc1ccc(OC)c2c1CC[C@@H]2C(=O)NS(=O)(=O)c1cccc2ccccc12` [Example I-89, (1S)-4,7-dimethoxy-N-(naphthalene-1-sulfonyl)-2,3-dihydro-1H-indene-1-carboxamide], in assay [1], the “Maximum % activity (with co-corrector)” value is “++ (≥150 and <350)”; the EC50 was 3 to 10 µM. In assay [2], the Emax was 50 to 150% and the EC50 was in the range of 3 to 10 µM.

`COc1ccc(OC)c2c1CC[C@H]2C(=O)NS(=O)(=O)c1cccc2ccccc12` [Example I-90, (1R)-4,7-dimethoxy-N-(naphthalene-1-sulfonyl)-2,3-dihydro-1H-indene-1-carboxamide]: in assay [1], the “Maximum % activity (with co-corrector)” value was “+++ (≥350)” and the EC50 lay in the range of 3 to 10 µM. In assay [2], the maximum response (Emax) was ≥ 150% and the EC50 was in the range of 3 to 10 µM.

`COc1ccc(OC)c2c1CC[C@@H]2C(=O)NS(=O)(=O)c1cccc2ncccc12` [Example I-91, (1S)-4,7-dimethoxy-N-(quinoline-5-sulfonyl)-2,3-dihydro-1H-indene-1-carboxamide]: in assay [1], the “Maximum % activity (with co-corrector)” value was “+++ (≥350)” and the 50% effective concentration (EC50) is 3 to 10 µM. In addition, in assay [2], the Emax is 50 to 150% and the EC50 is 3 to 10 µM.

Take `COc1ccc(OC)c2c1CC[C@H]2C(=O)NS(=O)(=O)c1cccc2ncccc12` [Example I-92, (1R)-4,7-dimethoxy-N-(quinoline-5-sulfonyl)-2,3-dihydro-1H-indene-1-carboxamide]: in assay [1], the “Maximum % activity (with co-corrector)” value is listed as “+++ (≥350)” and the EC50 is < 3 µM. In assay [2], the Emax is ≥ 150% and the EC50 was 3 to 10 µM.

On to `COc1ccc(C(F)(F)F)c2c1[C@@H](C(=O)NS(=O)(=O)c1cccc3ccccc13)CC2` [Example I-93, (1S)-7-methoxy-N-(naphthalene-1-sulfonyl)-4-(trifluoromethyl)-2,3-dihydro-1H-indene-1-carboxamide], for which, in assay [1], the “Maximum % activity (with co-corrector)” value is recorded as “+++ (≥350)” and the EC50 is 3 to 10 µM. In assay [2], the Emax was ≥ 150% and the 50% effective concentration (EC50) fell in the range of 3 to 10 µM.

As for `COc1ccc(C(F)(F)F)c2c1[C@H](C(=O)NS(=O)(=O)c1cccc3ccccc13)CC2` [Example I-94, (1R)-7-methoxy-N-(naphthalene-1-sulfonyl)-4-(trifluoromethyl)-2,3-dihydro-1H-indene-1-carboxamide], in assay [1], the “Maximum % activity (with co-corrector)” value is on record as “+++ (≥350)” and the concentration for a half-maximal effect (EC50) was < 3 µM. Besides, in assay [2], the Emax was ≥ 150% and the EC50 is < 3 µM.

On to `COc1ccc(C(F)(F)F)c2c1[C@@H](C(=O)NS(=O)(=O)c1cccc3ncccc13)CC2` [Example I-95, (1S)-7-methoxy-N-(quinoline-5-sulfonyl)-4-(trifluoromethyl)-2,3-dihydro-1H-indene-1-carboxamide], for which, in assay [1], the “Maximum % activity (with co-corrector)” value was “+++ (≥350)” and the EC50 is < 3 µM. For the same compound, in assay [2], the maximum response (Emax) was ≥ 150% and the concentration for a half-maximal effect (EC50) was 3 to 10 µM.

Turning to `COc1ccc(C(F)(F)F)c2c1[C@H](C(=O)NS(=O)(=O)c1cccc3ncccc13)CC2` [Example I-96, (1R)-7-methoxy-N-(quinoline-5-sulfonyl)-4-(trifluoromethyl)-2,3-dihydro-1H-indene-1-carboxamide], in assay [1], the “Maximum % activity (with co-corrector)” value is on record as “+++ (≥350)” and the concentration for a half-maximal effect (EC50) was < 3 µM. Further, in assay [2], the Emax is ≥ 150% and the concentration for a half-maximal effect (EC50) was < 3 µM.

Consider `CCC1(C(=O)NS(=O)(=O)c2cccc3cnn(C)c23)CCc2c(Cl)cccc21` (centres unmarked) [Example I-97, 4-chloro-1-ethyl-N-(1-methyl-1H-indazole-7-sulfonyl)-2,3-dihydro-1H-indene-1-carboxamide], for which, in assay [1], the “Maximum % activity (with co-corrector)” value is “+++ (≥350)” and the half-maximal effective concentration (EC50) was < 3 µM. For the same compound, in assay [2], the Emax was ≥ 150% and the EC50 is < 3 µM.

Regarding `COc1ccc(Br)c2c1C(C(=O)NS(=O)(=O)c1cccc3cnn(C)c13)CC2` (centres unmarked) [Example I-98, 4-bromo-7-methoxy-N-(1-methyl-1H-indazole-7-sulfonyl)-2,3-dihydro-1H-indene-1-carboxamide], in assay [1], the “Maximum % activity (with co-corrector)” value is listed as “+++ (≥350)” and the concentration for a half-maximal effect (EC50) was < 3 µM. Besides, in assay [2], the Emax is ≥ 150% and the EC50 was < 3 µM.

With `COc1ccc(C2CCC2)c2c1C(C(=O)NS(=O)(=O)c1cccc3cnn(C)c13)CC2` (centres unmarked) [Example I-99, 4-cyclobutyl-7-methoxy-N-(1-methyl-1H-indazole-7-sulfonyl)-2,3-dihydro-1H-indene-1-carboxamide], in assay [1], the “Maximum % activity (with co-corrector)” value is “+++ (≥350)” and the EC50 is < 3 µM. Besides, in assay [2], the Emax is ≥ 150% and the EC50 fell in the range of 3 to 10 µM.

As to `COc1ccc(Br)c2c1C(C(=O)NS(=O)(=O)c1cccc3ncc(C)n13)CC2` (centres unmarked) [Example I-100, 4-bromo-7-methoxy-N-(3-methylimidazo[1,2-a]pyridine-5-sulfonyl)-2,3-dihydro-1H-indene-1-carboxamide], in assay [1], the “Maximum % activity (with co-corrector)” value is given as “+++ (≥350)” and the EC50 is < 3 µM. Also, in assay [2], the maximal response (Emax) was ≥ 150% and the 50% effective concentration (EC50) was < 3 µM.

`COc1ccc(Br)c2c1C(C(=O)NS(=O)(=O)c1cccc3nc(C)cn13)CC2` (centres unmarked) [Example I-101, 4-bromo-7-methoxy-N-(2-methylimidazo[1,2-a]pyridine-5-sulfonyl)-2,3-dihydro-1H-indene-1-carboxamide]: in assay [1], the “Maximum % activity (with co-corrector)” value is “+++ (≥350)” and the half-maximal effective concentration (EC50) was < 3 µM. In assay [2], the maximal response (Emax) was ≥ 150% and the EC50 was < 3 µM.

For `COc1ccc(C2CCC2)c2c1C(C(=O)NS(=O)(=O)c1cccc3ccccc13)C2` (centres unmarked) [Example I-102, 2-cyclobutyl-5-methoxy-N-(naphthalene-1-sulfonyl)bicyclo[4.2.0]octa-1,3,5-triene-7-carboxamide], in assay [1], the “Maximum % activity (with co-corrector)” value is “+++ (≥350)” and the 50% effective concentration (EC50) was < 3 µM. In assay [2], the Emax is ≥ 150% and the concentration for a half-maximal effect (EC50) is < 3 µM.
